Our source for the IC50 and EC50 values is patent US11555036B2, “FGFR4 inhibitor, preparation method therefor and pharmaceutical use thereof” (Abbisko Therapeutics Co., Ltd., priority 2016, dated 2023).

Structures are written as SMILES.

One test deals with FGFR4 (Homo sapiens, UniProt P22455). The experiment in a line: FGFR4 Caliper Assay (in vitro biochemical kinase analysis of FGFR4). The following applies: read-out: Enzymatic activity FGFR4 IC50. As to the method: I. In Vitro Biochemical Kinase Analysis of FGFR4
Sequence of FGFR4 (P22455 22-802): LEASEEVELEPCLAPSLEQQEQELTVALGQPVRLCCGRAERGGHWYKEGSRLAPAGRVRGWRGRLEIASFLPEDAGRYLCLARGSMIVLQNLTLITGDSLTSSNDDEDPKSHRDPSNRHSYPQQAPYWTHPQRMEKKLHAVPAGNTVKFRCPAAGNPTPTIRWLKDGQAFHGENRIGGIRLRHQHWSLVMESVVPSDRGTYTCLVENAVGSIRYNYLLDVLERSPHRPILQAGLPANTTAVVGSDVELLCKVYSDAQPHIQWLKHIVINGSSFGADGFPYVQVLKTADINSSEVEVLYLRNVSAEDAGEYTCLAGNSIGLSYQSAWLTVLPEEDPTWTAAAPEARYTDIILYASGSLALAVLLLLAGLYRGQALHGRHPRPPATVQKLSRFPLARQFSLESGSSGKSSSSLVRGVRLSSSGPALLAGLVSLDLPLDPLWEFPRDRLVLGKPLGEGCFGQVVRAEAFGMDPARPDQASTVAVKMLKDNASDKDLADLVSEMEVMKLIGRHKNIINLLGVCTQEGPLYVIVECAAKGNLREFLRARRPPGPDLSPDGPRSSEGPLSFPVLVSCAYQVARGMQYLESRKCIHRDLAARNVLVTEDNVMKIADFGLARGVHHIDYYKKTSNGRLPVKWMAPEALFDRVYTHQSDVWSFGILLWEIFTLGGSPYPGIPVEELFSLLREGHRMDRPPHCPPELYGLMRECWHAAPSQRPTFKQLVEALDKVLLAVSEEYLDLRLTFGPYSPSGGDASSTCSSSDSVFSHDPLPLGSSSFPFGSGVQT
FGFR4 Caliper Assay was used in the present invention to determine the inhibitory activities of the compounds against FGFR4. The detailed experimental procedure was as follows.
2. A reaction system is a mixture solution of 50 mM HEPES, pH 7.5, 1 mM DTT, 0.02% Tween 20, 0.02% BSA, 0.6% DMSO, 10 mM beta glycerol phosphate and 10 μM sodium orthovanadate and 16 mM MgCl2.
3. The reaction system was incubated at 30° C. for 40 minutes.
4. The reaction was terminated by adding a stop solution (100 mM HEPES, pH 7.5, 5% DMSO, 0.1% Caliper coating reagent, 10 mM EDTA and 0.015% Brij35).
5. The culture plate with the terminated kinase reaction was transferred to the Caliper LC 3000 workstation to read the data, the phosphorylated and unphosphorylated peptides were separated by using the Caliper microfluid migration shift technique, and the analyte was transferred by allowing a constant buffer flow through the chip, the migration of the substrate peptide was monitored by the labeled fluorescent signal, and the kinase activity was calculated by using the amount of the phosphate-based peptide formed.
6. Finally, IC50 values were determined by non-linear regression analysis of percent inhibition at different compound concentrations.

In test [1] the test system is Huh7 hepatocellular carcinoma cells. The experiment in a line: FGFR4 cell proliferation experiment, Cell Titer Glo (CTG). In kind it is cell-based. The following applies: Homo sapiens, Huh-7, 72 h, HuH-7 cells, 3 days; for IC50: concentration leading to absolute half growth inhibition; for EC50: concentration leading to half maximal growth inhibition. The method, then: II. FGFR4 Cell Proliferation Experiment
Cell Titer Glo (CTG) experiment was used in the present invention to evaluate the functional effects of the compounds on cell proliferation. […] Compound-mediated inhibition of cell proliferation/survival was assessed by quantification of cellular ATP levels using CTG reagent (Promega, #G7573). The specific experimental procedure was as follows:
2. 10 μL of medium containing a compound concentration of 10 fold of its final test concentration was added;
3. The dose effect was evaluated by a 5-fold serial dilution of the test compound, starting from 10 μM.
4. After cells incubation for 3 days at 37° C. under 5% CO2, the effect of the inhibitor on cell proliferation was quantified after adding 50 μL of CTG and testing with luminescence.

For the compound `C=CC(=O)N[C@H]1COC[C@H]1Nc1ncc2cc(-c3c(Cl)c(OC)cc(OC)c3Cl)ncc2n1` (racemic) [Example 118, (±)—N-((3R,4S)-4-((6-(2,6-dichloro-3,5-dimethoxyphenyl)pyrido[3,4-d]pyrimidin-2-yl)amino)tetrahydrofuran-3-yl)acrylamide], the IC50 at FGFR4 worked out at 0.0805 µM. In test [1], this compound gave an IC50 of 0.333 µM and an EC50 of 0.179 µM.

For the compound `C=CC(=O)N[C@H]1CCOC[C@H]1Nc1ncc2cc(-c3c(Cl)c(OC)cc(OC)c3Cl)ccc2n1` [BLU-554], the IC50 at FGFR4 is 0.018 µM. In test [1], the IC50 amounted to 0.126 µM and the EC50 was determined as 0.027 µM.

In test [1], `C=CC(=O)Nc1cccc(C)c1Nc1ncc2cc(-c3c(Cl)c(OC)cc(OC)c3Cl)ccc2n1` [BLU-9931] registered an IC50 of 1.36 µM and an EC50 of 0.549 µM.

For `C=CC(=O)Nc1cccc(C)c1Nc1cc2c(=O)n(C)c(-c3c(Cl)c(OC)cc(OC)c3Cl)cc2cn1` [Example 1, N-(2-((7-(2,6-dichloro-3,5-dimethoxyphenyl)-6-methyl-5-oxo-5,6-dihydro-2,6-naphthyridin-3-yl)amino)-3-methylphenyl)acrylamide], the figures for the IC50 (on FGFR4; in test [1]) were 0.0139 µM and 2.45 µM, respectively. The EC50 in test [1] was found to be 1.53 µM.

For the compound `C=CC(=O)Nc1cccc(C)c1Nc1cc2c(=O)[nH]c(-c3c(Cl)c(OC)cc(OC)c3Cl)nc2cn1` [Example 5, N-(2-((2-(2,6-dichloro-3,5-dimethoxyphenyl)-4-oxo-3,4-dihydropyrido[3,4-d]pyrimidin-6-yl)amino)-3-methyl-phenyl)acrylamide], the IC50 at FGFR4 turned out to be 0.0261 µM. In addition, in test [1], the IC50 is > 10 µM and the EC50 is > 10 µM.

`C=CC(=O)Nc1cccc(C)c1Nc1cc2c(=O)oc(-c3c(Cl)c(OC)cc(OC)c3Cl)cc2cn1` [Example 7, N-(2-((3-(2,6-dichloro-3,5-dimethoxyphenyl)-1-oxo-1 H-pyrano[4,3-c]pyridin-7-yl)amino)-3-methylphenyl) acrylamide]: the values for the IC50 (at FGFR4; in test [1]) were 0.0289 µM and > 10 µM, respectively. In addition, the EC50 in test [1] is > 10 µM.

In the case of `C=CC(=O)Nc1cccc(C)c1Nc1cc2c(OC)nc(-c3c(Cl)c(OC)cc(OC)c3Cl)cc2cn1` [Example 9, N-(2-((7-(2,6-dichloro-3,5-dimethoxyphenyl)-5-dimethoxy-2,6-naphthyridin-3-yl)amino)-3-methylphenyl)acryl-amide], the IC50 on FGFR4 turned out to be 0.138 µM. In test [1], this compound displayed an IC50 of 1.05 µM and an EC50 of 0.089 µM.

With `C=CC(=O)Nc1cccc(C)c1Nc1cc2c(OC)nc(-c3c(Cl)c(OC)cc(OC)c3Cl)nc2cn1` [Example 10, N-(2-((2-(2,6-dichloro-3,5-dimethoxyphenyl)-4-methoxy-pyrido[3,4-d]pyrimidin-6-yl)amino)-3-methylphenyl) acrylamide], on FGFR4, the IC50 came to 0.105 µM. In test [1], this compound showed an IC50 of 4.82 µM and an EC50 of 3.52 µM.

`C=CC(=O)Nc1cccc(C)c1Nc1cc2c(=O)n(CCOC)c(-c3c(Cl)c(OC)cc(OC)c3Cl)nc2cn1` [Example 11, N-(2-((2-(2,6-dichloro-3,5-dimethoxyphenyl)-3-(2-methoxyethyl)-4-oxo-3,4-dihydropyrido[3,4-d]pyrimidin-6-yl)amino)-3-methylphenyl) acrylamide]: the IC50 at FGFR4 was 0.101 µM. In addition, in test [1], the IC50 was determined as 4.72 µM and a half-maximal response (EC50) required 4.72 µM.

Turning to `C=CC(=O)Nc1cn(C)nc1Nc1ncc2cc(-c3c(Cl)c(OC)cc(OC)c3Cl)ncc2n1` [Example 64, N-(3-((6-(2,6-dichloro-3,5-dimethoxyphenyl)pyrido[3,4-d]pyrimidin-2-yl)amino)-1-methyl-1H-pyrazol-4-yl) acrylamide], the half-maximal inhibitory concentration (IC50) is 0.0533 µM at FGFR4 and 0.269 µM in test [1]. This compound also had an EC50 in test [1] of 0.0542 µM.

As to `[2H]C([2H])([2H])Oc1cc(OC([2H])([2H])[2H])c(Cl)c(-c2cc3cnc(N[C@@H]4COC[C@@H]4NC(=O)C=C)nc3c(NCC3CC3)n2)c1Cl` [Example 425, N-((3R,4S)-4-((8-((cyclopropylmeth-yl)amino)-6-(2,6-dichloro-3,5-bis(meth-oxy-d3)phenyl)pyrido[3,4-d]pyrimi-din-2-yl)amino)tetrahydrofuran-3-yl)acrylamide], the IC50 on FGFR4 was 0.0077 µM.

For the compound `C=CC(=O)N[C@H]1COC[C@H]1Nc1ncc2cc(-c3c(Cl)c(OC)cc(OC)c3Cl)nc(NCCN(C)C)c2n1` [Example 431, N-((3R,4S)-4-((6-(2,6-dichloro-3,5-di-methoxyphenyl)-8-((2-(dimethylami-no)ethyl)amino)pyrido[3,4-d]pyrimi-din-2-yl)amino)tetrahydrofuran-3-yl) acrylamide], the IC50 at FGFR4 came to 0.519 µM.

On to `C=CC(=O)N[C@H]1COC[C@H]1Nc1ncc2cc(-c3c(Cl)c(OC)cc(OC)c3Cl)nc(N(C)C)c2n1` [Example 436, N-((3R,4S)-4-((6-(2,6-dichloro-3,5-di-methoxyphenyl)-8-(dimethylamino)pyrido[3,4-d]pyrimidin-2-yl)amino)tetrahydrofuran-3-yl)acrylamide], for which the IC50 at FGFR4 is > 10 µM.

With `C=CC(=O)N[C@H]1COC[C@H]1Nc1ncc2cc(-c3c(Cl)c(OC)cc(OC)c3Cl)nc(NCC3CCOC3)c2n1` (stereo partly drawn) [Example 439, N-((3R,4S)-4-((6-(2,6-dichloro-3,5-di-methoxyphenyl)-8-(((tetrahydrofuran-3-yl)methyl)amino)pyrido[3,4-d]py-rimidin-2-yl)amino)tetrahydrofuran-3-yl)acrylamide], the IC50 at FGFR4 stood at 0.0046 µM.

Turning to `C=CC(=O)N[C@H]1COC[C@H]1Nc1ncc2cc(-c3c(Cl)c(OC)cc(OC)c3Cl)nc(NC3CCOCC3)c2n1` [Example 444, N-((3R,4S)-4-((6-(2,6-dichloro-3,5-di-methoxyphenyl)-8-((tetrahydro-2H-pyran-4-yl)amino)pyrido[3,4-d]py-rimidin-2-yl)amino)tetrahydrofuran-3-yl)acrylamide], at FGFR4, the IC50 worked out at 0.007 µM.

Consider `C=CC(=O)N[C@H]1COC[C@H]1Nc1ncc2cc(-c3c(Cl)c(OC)cc(OC)c3Cl)nc(NCCCCN(C)C)c2n1` [Example 465, N-((3R,4S)-4-((6-(2,6-dichloro-3,5-di-methoxyphenyl)-8-((4-(dimethylamino)butyl)amino)pyrido[3,4-d]pyrimi-din-2-yl)amino)tetrahydrofuran-3-yl) acrylamide], for which the IC50 at FGFR4 worked out at 0.0464 µM.

Consider `C=CC(=O)N[C@H]1COC[C@H]1Nc1ncc2cc(-c3c(Cl)c(OC)cc(OC)c3Cl)nc(C3CC3)c2n1` [Example 609, N-((3R,4S)-4-((8-cyclopropyl-6-(2,6-dichloro-3,5-dimethoxyphenyl)pyri-do[3,4-d]pyrimidin-2-yl)amino)tetra-hydrofuran-3-yl)acrylamide], for which, in test [1], inhibition was half-maximal at 0.0561 µM (IC50) and the EC50 worked out at 0.0366 µM.

As to `C=CC(=O)N[C@H]1COC[C@H]1Nc1ncc2cc(-c3c(Cl)c(OC)cc(OC)c3Cl)nc(OCc3cc(OC)cc(OC)c3)c2n1` [Example 755, N-((3R,4S)-4-((6-(2,6-dichloro-3,5-dimethoxyphenyl)-8-((3,5-dimethoxy-benzyl)oxy)pyrido[3,4-d]pyrimidin-2-yl)amino)tetrahydrofuran-3-yl) acrylamide], the IC50 on FGFR4 was determined as 0.043 µM.

In test [1], `C=CC(=O)N[C@H]1COC[C@H]1Nc1ncc2cc(-c3c(F)ccc(OC)c3F)nc(NC)c2n1` [Example 777, N-((3R,4S)-4-((6-(2,6-difluoro-3-meth-oxyphenyl)-8-(methylamino)pyri-do[3,4-d]pyrimidin-2-yl)amino)tetra-hydrofuran-3-yl)acrylamide] gave an IC50 of 0.66 µM and an EC50 of 0.651 µM.

Turning to `C=CC(=O)N[C@H]1COC[C@H]1Nc1ncc2cc(-c3c(Cl)c(OC)cc(OC)c3Cl)nc(N3CC[C@](C)(O)C3)c2n1` [Example 778, N-((3R,4S)-4-((6-(2,6-dichloro-3,5-dimethoxyphenyl)-8-((S)-3-hydroxy-3-methylpyrrolidin-1-yl)pyrido[3,4-d]py-rimidin-2-yl)amino)tetrahydrofuran-3-yl)acrylamide], in test [1], the IC50 came to 0.0112 µM and the EC50 worked out at 0.0095 µM.

In test [1], `C=CC(=O)N[C@H]1COC[C@H]1Nc1ncc2cc(-c3c(Cl)c(OC)cc(OC)c3Cl)nc(N3CC[C@@](C)(O)C3)c2n1` [Example 779, N-((3R,4S)-4-((6-(2,6-dichloro-3,5-dimethoxyphenyl)-8-((R)-3-hydroxy-3-methylpyrrolidin-1-yl)pyrido[3,4-d]pyrimidin-2-yl)amino)tetrahydro-furan-3-yl)acrylamide] showed an IC50 of 0.0086 µM and an EC50 of 0.0075 µM.
